Measured values taken from ChEMBL document CHEMBL1201862, “PubChem BioAssay data set” (2004).
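Cells were grown in 96-well plates and exposed to each compound for 48 hours at five concentrations; endpoints were interpolated linearly between bracketing concentrations, or set to the highest concentration if not reached. GI50 is the concentration that inhibits growth by half.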 Activity calls are given as the source filed them. Rule as the data show it: active = GI50 up to about 1.1 µM and inactive = higher.

Key:
Experiment in all cases: NCI anticancer screen, dose series, 48 h
OVCAR-5 = system: OVCAR-5
HL-60 = system: HL-60
NCI-H460 = system: NCI-H460
MOLT-4 = system: MOLT-4
SN12C = system: SN12C
UACC-62 = system: UACC-62
OVCAR-3 = system: OVCAR-3
SR = system: SR
HCT-15 = system: HCT-15
ACHN = system: ACHN
786-0 = system: 786-0
M19-MEL = system: M19-MEL
IGROV-1 = system: IGROV-1
Malme-3M = system: Malme-3M
HCC 2998 = system: HCC 2998
RXF 631 = system: RXF 631
SK-MEL-28 = system: SK-MEL-28
SNB-75 = system: SNB-75
LXFL 529 = system: LXFL 529
LOX IMVI = system: LOX IMVI
DMS-114 = system: DMS-114
SK-MEL-5 = system: SK-MEL-5
SK-MEL-2 = system: SK-MEL-2
U-251 = system: U-251
HT-29 = system: HT-29
M14 = system: M14
OVCAR-8 = system: OVCAR-8
EKVX = system: EKVX
HOP-62 = system: HOP-62
NCI-H522 = system: NCI-H522
UO-31 = system: UO-31
DMS-273 = system: DMS-273
K562 = system: K562
XF498 = system: XF498
SF-268 = system: SF-268
NCI-H226 = system: NCI-H226
RPMI-8226 = system: RPMI-8226
SW-620 = system: SW-620
CAKI-1 = system: CAKI-1
OVCAR-4 = system: OVCAR-4
SK-OV-3 = system: SK-OV-3
SNB-19 = system: SNB-19
KM-20L2 = system: KM-20L2
A549 = system: A549
HCT-116 = system: HCT-116
SF-295 = system: SF-295
SF-539 = system: SF-539
UACC-257 = system: UACC-257
A498 = system: A498
KM12 = system: KM12
DLD-1 = system: DLD-1
Hs-578T = system: Hs-578T
COLO 205 = system: COLO 205
MDA-N = system: MDA-N
MDA-MB-231 = system: MDA-MB-231
TK-10 = system: TK-10
MDA-MB-435 = system: MDA-MB-435
T47D = system: T47D
PC-3 = system: PC-3
BT-549 = system: BT-549
DU-145 = system: DU-145
NCI/ADR-RES = system: NCI/ADR-RES
RXF 393 = system: RXF 393
HOP-92 = system: HOP-92
NCI-H23 = system: NCI-H23
CCRF-CEM = system: CCRF-CEM

Measured: GI50

N#CCCN(CCC#N)c1ccc(/C=C2\N=C(CN3C(=O)c4ccccc4C3=O)OC2=O)cc1
inactive: OVCAR-5 > 100 µM | HL-60 > 100 µM | NCI-H460 > 100 µM | MOLT-4 > 100 µM | SN12C > 100 µM | UACC-62 > 100 µM | OVCAR-3 > 100 µM | SR > 100 µM | ACHN > 100 µM | 786-0 > 100 µM | M19-MEL > 100 µM | IGROV-1 > 100 µM | Malme-3M > 100 µM | HCC 2998 > 100 µM | RXF 631 > 100 µM | SK-MEL-28 > 100 µM | SNB-75 > 100 µM | LXFL 529 > 100 µM | LOX IMVI > 100 µM | DMS-114 > 100 µM | SK-MEL-5 > 100 µM | SK-MEL-2 > 100 µM | U-251 > 100 µM | HT-29 > 100 µM | M14 > 100 µM | OVCAR-8 > 100 µM | EKVX > 100 µM | HOP-62 > 100 µM | NCI-H522 89.7 µM | UO-31 > 100 µM | DMS-273 > 100 µM | K562 > 100 µM | XF498 > 100 µM | SF-268 > 100 µM | NCI-H226 > 100 µM | RPMI-8226 39.3 µM | SW-620 > 100 µM | CAKI-1 > 100 µM | OVCAR-4 > 100 µM | SK-OV-3 > 100 µM | SNB-19 > 100 µM | KM-20L2 > 100 µM | A549 > 100 µM | HCT-116 > 100 µM | SF-295 > 100 µM | SF-539 > 100 µM | UACC-257 > 100 µM | A498 > 100 µM | KM12 > 100 µM
> 100 µM: HCT-15

COc1ccc2c(=O)cc(-c3ccc(OC)c(OC)c3OC)oc2c1
inactive: DLD-1 53.3 µM | OVCAR-5 > 69 µM | HL-60 30.1 µM | Hs-578T 47.6 µM | NCI-H460 99.3 µM | COLO 205 > 71.8 µM | MOLT-4 55.5 µM | SN12C 61.4 µM | UACC-62 48.8 µM | OVCAR-3 > 44.4 µM | MDA-N 95.3 µM | MDA-MB-231 38.7 µM | SR 74.8 µM | ACHN > 63.2 µM | 786-0 > 100 µM | TK-10 > 100 µM | M19-MEL 67.9 µM | MDA-MB-435 > 100 µM | IGROV-1 > 83.4 µM | T47D > 100 µM | Malme-3M 40.4 µM | HCC 2998 > 63.8 µM | RXF 631 97.3 µM | SK-MEL-28 > 100 µM | PC-3 60.4 µM | SNB-75 23.4 µM | LXFL 529 40.4 µM | LOX IMVI > 75.7 µM | DMS-114 76.2 µM | BT-549 > 100 µM | SK-MEL-5 49 µM | U-251 > 100 µM | HT-29 98.9 µM | M14 > 100 µM | DU-145 > 100 µM | OVCAR-8 > 100 µM | EKVX > 64.3 µM | HOP-62 > 85.3 µM | NCI-H522 > 39.8 µM | UO-31 > 100 µM | NCI/ADR-RES 28.4 µM | RXF 393 > 80.9 µM | HOP-92 33.1 µM | K562 37.1 µM | XF498 46.7 µM | SF-268 > 60.1 µM | NCI-H226 > 65.9 µM | RPMI-8226 16.9 µM | SW-620 > 100 µM | CAKI-1 > 82.4 µM | OVCAR-4 > 93.3 µM | SK-OV-3 > 89.1 µM | SNB-19 > 60.4 µM | KM-20L2 26.5 µM | A549 4.81 µM | NCI-H23 > 100 µM | CCRF-CEM > 31.6 µM | HCT-116 > 100 µM | SF-295 48.1 µM | SF-539 > 57.3 µM | UACC-257 > 100 µM | KM12 > 43.7 µM
> 100 µM: HCT-15
